Patent US9029092B2, “Solution phase homogeneous assays” (Beckman Coulter, Inc., priority 2009, dated 2015)
Read-outs that look alike come from different tables or passages of the source.

Key:
PSA = assay: Screening SSIA by homogeneous PSA immunoassay (anti-PSA-AK1 + anti-PSA-HRP); format: biochemical, human
Protocol: This example presents one method used for testing of candidate compounds for functionality as SSIA in assays of the present disclosure. Testing was conducted in a model screening immunoassay of the protein PSA. Tests were run using a 96-well microtiter plate format. A solution containing 30 μL of mouse anti-PSA-AK1 (66 ng), 30 μL of mouse anti-PSA-HRP conjugate (7.8 ng), 36 μL of human female serum, and 24 μL of PSA calibrator were pipetted into each well. The plate was incubated at 37° C. for 10 minutes. A 5 μL aliquot of the test compound (various concentrations) was added to each well. Chemiluminescence was triggered by the addition of 100 μL of a solution of a trigger solution whose composition is listed below. The chemiluminescent flash was integrated for 5 seconds after the addition of the trigger solution using a Luminoskan Asent® plate luminometer, (Thermo Fischer Scientific, Inc., Waltham, Mass.).
It is desirable that the improvement factor be at least 2 (S5/S0≧ about 20-30) and more desirable that improvement factor be at least 5 (S5/S0≧ about 50), yet more desirable that S5/S0 be ≧100 in the present screen.

TnI = assay: Assays utilizing various SSIA in TnI assay; format: biochemical; conditions: for Signal/Noise S1/S0: calibrator S1; for Signal/Noise S2/S0: calibrator S2; for Signal/Noise S3/S0: calibrator S3; for Signal/Noise S4/S0: calibrator S4; for Signal/Noise S5/S0: calibrator S5; for Signal/Noise S6/S0: calibrator S6
Protocol: In a reaction tube, 400 uL of TnI M6 antibody-HRP conjugate at 0.5 ug/mL in buffered aqueous solution at pH. 8.0 (100 mM Tris, 150 mM NaCl, 0.1 mM EDTA, 0.2% Tween-20 and 1% BSA), 400 uL of AK1˜Dex70/31˜Streptavidin (fraction 1) 2:1 SA/Ab at 2 ug/mL Ab also in buffered aqueous solution at pH 8.0, and 400 uL of calibrator standard solution containing the TnI analyte at a known concentration. One tube was prepared for each calibrator concentration. […] Next, 25 uL of each antioxidant as a concentrated solution of 2 mM, 1 mM or 0.5 mM was pipetted into the plate wells using a repeater pipette. The plates were rotated for 10 seconds to mix and incubated between 5 to 33 minutes. Detection was performed with a SpectraMax L injection plate luminometer.

biotinylated HRP = assay: Model system for selection of SSIA (AK1/streptavidin BSA microparticles + biotinylated HRP); format: biochemical, horseradish; conditions: SSIA 100 μM final; for light intensity, BTN-HRP0: Btn-HRP 0 ng/mL; for light intensity, BTN-HRP0 / light intensity, BTN-HRP1 / light intensity, BTN-HRP10 / light intensity, BTN-HRP100 / light intensity, BTN-HRP250: total HRP 500 ng/mL; for S1/S0: Btn-HRP 1 ng/mL vs 0; for light intensity, BTN-HRP1: Btn-HRP 1 ng/mL; for S2/S0: Btn-HRP 10 ng/mL vs 0; for light intensity, BTN-HRP10: Btn-HRP 10 ng/mL; for S3/S0: Btn-HRP 100 ng/mL vs 0; for light intensity, BTN-HRP100: Btn-HRP 100 ng/mL; for S4/S0: Btn-HRP 250 ng/mL vs 0; for light intensity, BTN-HRP250: Btn-HRP 250 ng/mL
Protocol: The model system uses a microparticle conjugated to BSA (bovine serum albumin) labeled with a […] and acridan ketenedithioacetal chemiluminescent label (AK1) as the chemiluminescent-labeled sbp, and biotinylated HRP as the activator-labeled specific binding pair. In the model system, varying amounts of Btn-HRP is added to the chemiluminescent-labeled specific binding pair at 0, 1, 10, 100 and 250 ng/mL. Additional unlabeled HRP is added to reach a total HRP of concentration of 500 ng/mL in each reaction mixture. The unlabeled HRP in combination with the activator-labeled sbp was provided to the chemiluminescent-labeled sbp microparticles to emulate sample. A compound for assessment as an SSIA was also added. This reaction mixture of the model system is then triggered by addition of trigger solution in a manner of assays of the present disclosure.
To prepare the chemiluminescent-labeled sbp on microparticles, Bovine Serum Albumin (BSA) was biotinylated with 4× molar excess of biotin-LC-sulfoNHS (Pierce Biotechnology Inc., Rockford, Ill., USA). Unbound reactants were removed via desalting or dialysis. The biotin-BSA was then reacted with a 5× molar excess of an NHS ester of acridan ketenedithioacetal AK1 in 20 mM sodium phosphate pH 7.2: DMSO 75:25, v/v) followed by desalting in the same buffer. The dual labeled (biotin and AK1) BSA was then coupled with tosyl activated M280 microparticles (Invitrogen Corporation, Carlsbad, Calif., USA) in a 0.1M borate buffer pH 9.5 at a concentration of about 20 μg of labeled BSA per mg of microparticles for 16-24 h at 40° C. After coupling the microparticles were stripped for 1 h at 40° C. with 0.2 M TRIS base, 2% SDS, pH˜11. The stripping process was repeated one additional time. Microparticles were then suspended in a 0.1% BSA/TRIS buffered saline (BSA/TBS) buffer and streptavidin (SA) was added at approximately 15 μg SA per mg microparticles. Streptavidin was mixed with the microparticles for 45-50 min at room temperature. The microparticles were then washed three times and suspended in the same BSA/TBS.
HRP, (Roche Diagnostics, Indianapolis, Ind., USA) was biotinylated with 4× molar excess of biotin-LC-sulfoNHS (Pierce Biotechnology Inc., Rockford, Ill., USA). Alternatively, 25× molar excess of biotin-PEO4-NHS may be used. Unbound reactants were removed via desalting or dialysis.
Each SSIA compound for assessment was solubilized in Buffer II at a concentration at least 10× of the working strength concentration.
25 μl of 1 mg/ml of dual-labeled (biotin and AK1) BSA M280 particles were mixed with 45 μl of working concentration SSIA in Buffer II. The assay volume brought to 85 μl by adding 15 μl of Buffer II. 15 μl of sample containing Btn-HRP:HRP at different ratios (The amount of biotinylated-HRP varied from 0, 1, 10, 100 and 250 ng/mL) was added. The reaction mixture was incubated for 30 min at 37° C., then 100 μL of trigger solution was added and the light intensity recorded. Total volume of reaction mixture, including trigger solution was 200 μL with a final concentration of 100 μM of SSIA.
The screening tests were performed using a modified DxI® Immunoassay System (Beckman Coulter, Inc. Brea, Calif.) as described above.

[1] = test compound final conc. […] ([…]), S5 = 129 ng PSA/mL vs zero PSA
[2] = SSIA final concentration 125 uM
[3] = SSIA final concentration 250 uM
[4] = SSIA final concentration 500 uM
[5] = SSIA final concentration 6.25 uM
[6] = SSIA final concentration 12.5 uM

## c1ccc2c(c1)Cc1ccccc1S2
PSA; [1]
  S5/S0: 9

## O=c1c(O)c(-c2ccccc2)oc2ccccc12
PSA; [1]
  S5/S0: 13

## Nc1ccccc1S
PSA; [1]
  S5/S0: 234

## c1ccc2c(c1)Cc1ccccc1O2
PSA; [1]
  S5/S0: 4

## [N-]=[N+]=[N-].[Na+] [NaN3]
PSA; test compound final conc. 34 uM
  S5/S0: 19

## O=C(O)c1ccc(O)c(O)c1
PSA; [1]
  S5/S0: 178

## c1ccc2c(c1)Cc1ccccc1N2
PSA
  S5/S0: 120

## OCCO [Ethylene glycol]
PSA
  S5/S0: 14

## CC1=C(O)C(=O)C(C)O1 (stereo not shown)
PSA; test compound final conc. 1.25 mM
  S5/S0: 237

## Oc1ccc(O)c(Br)c1
PSA; [1]
  S5/S0: 570

## O=C(O)/C=C/c1ccc(O)c(O)c1
PSA; [1]
  S5/S0: 116

## Nc1cc(C[C@H](N)C(=O)O)ccc1O [3-Amino Tyrosine]
TnI; [2]
  Signal/Noise S1/S0: 1.5
  Signal/Noise S2/S0: 2.8
  Signal/Noise S3/S0: 9.0
  Signal/Noise S4/S0: 32.2
  Signal/Noise S5/S0: 234.8
  Signal/Noise S6/S0: 2268.7
TnI; [3]
  Signal/Noise S1/S0: 1.7
  Signal/Noise S2/S0: 2.7
  Signal/Noise S3/S0: 8.1
  Signal/Noise S4/S0: 31.1
  Signal/Noise S5/S0: 217.9
  Signal/Noise S6/S0: 1772.4
TnI; [4]
  Signal/Noise S1/S0: 1.1
  Signal/Noise S2/S0: 1.9
  Signal/Noise S3/S0: 5.9
  Signal/Noise S4/S0: 19.8
  Signal/Noise S5/S0: 118.6
  Signal/Noise S6/S0: 766.3

## Oc1ccc(Cl)cc1O [drawing 108]
PSA; test compound final conc. 0.244 mM (244 uM)
  S5/S0: 409

## C[C@H]1OC(=O)C(O)=C1O
PSA; [1]
  S5/S0: 423

## Nc1ncc[nH]1
PSA; test compound final conc. 24.4 mM
  S5/S0: 14

## c1ccc2c(c1)Nc1ccccc1O2 [phenoxazine]
TnI; [5]
  Signal/Noise S1/S0: 1.5
  Signal/Noise S2/S0: 3.1
  Signal/Noise S3/S0: 8.4
  Signal/Noise S4/S0: 32.1
  Signal/Noise S5/S0: 227.2
  Signal/Noise S6/S0: 2049.8
TnI; [6]
  Signal/Noise S1/S0: 1.5
  Signal/Noise S2/S0: 2.3
  Signal/Noise S3/S0: 6.4
  Signal/Noise S4/S0: 24.5
  Signal/Noise S5/S0: 147.2
  Signal/Noise S6/S0: 1116.9
TnI; SSIA final concentration 25 uM
  Signal/Noise S1/S0: 1.3
  Signal/Noise S2/S0: 1.6
  Signal/Noise S3/S0: 3.7
  Signal/Noise S4/S0: 12.1
  Signal/Noise S5/S0: 62.8
  Signal/Noise S6/S0: 387.3

## Cc1c(C)c2c(c(C)c1O)CCC(C)(C(=O)O)O2 (stereo not shown) [Trolox ®]
Biotinylated HRP
  light intensity, BTN-HRP0: 173
  S1/S0: 8.4
  light intensity, BTN-HRP1: 1,460
  S2/S0: 215.1
  light intensity, BTN-HRP10: 37,291
  S3/S0: 41832.7
  light intensity, BTN-HRP100: 7,251,008
  S4/S0: 62274.5
  light intensity, BTN-HRP250: 10,794,247
  effectiveness as SSIA in the model system: demonstrating utility as SSIA
TnI; [2]
  Signal/Noise S1/S0: 1.6
  Signal/Noise S2/S0: 3.3
  Signal/Noise S3/S0: 11.5
  Signal/Noise S4/S0: 44.4
  Signal/Noise S5/S0: 302.0
  Signal/Noise S6/S0: 2713.1
TnI; [3]
  Signal/Noise S1/S0: 2.0
  Signal/Noise S2/S0: 3.5
  Signal/Noise S3/S0: 12.8
  Signal/Noise S4/S0: 45.8
  Signal/Noise S5/S0: 295.1
  Signal/Noise S6/S0: 2334.5
TnI; [4]
  Signal/Noise S1/S0: 1.7
  Signal/Noise S2/S0: 2.6
  Signal/Noise S3/S0: 11.3
  Signal/Noise S4/S0: 31.1
  Signal/Noise S5/S0: 192.0
  Signal/Noise S6/S0: 1181.7

## Nc1ccccc1O [2-amino phenol, 2-aminophenol]
Biotinylated HRP
  light intensity, BTN-HRP0: 65
  S1/S0: 5.5
  light intensity, BTN-HRP1: 356
  S2/S0: 132.8
  light intensity, BTN-HRP10: 8,632
  S3/S0: 32195.4
  light intensity, BTN-HRP100: 2,092,703
  S4/S0: 61672.1
  light intensity, BTN-HRP250: 4,008,689
  effectiveness as SSIA in the model system: demonstrating utility as SSIA
TnI; [2]
  Signal/Noise S1/S0: 1.4
  Signal/Noise S2/S0: 2.3
  Signal/Noise S3/S0: 7.6
  Signal/Noise S4/S0: 27.2
  Signal/Noise S5/S0: 183.7
  Signal/Noise S6/S0: 1604.7
TnI; [3]
  Signal/Noise S1/S0: 0.9
  Signal/Noise S2/S0: 1.7
  Signal/Noise S3/S0: 4.5
  Signal/Noise S4/S0: 15.4
  Signal/Noise S5/S0: 101.7
  Signal/Noise S6/S0: 739.1
TnI; [4]
  Signal/Noise S1/S0: 1.3
  Signal/Noise S2/S0: 1.8
  Signal/Noise S3/S0: 4.8
  Signal/Noise S4/S0: 10.8
  Signal/Noise S5/S0: 52.5
  Signal/Noise S6/S0: 329.9

## Oc1ccc(C=Cc2cc(O)cc(O)c2)cc1 [Resveratrol]
Biotinylated HRP
  light intensity, BTN-HRP0: 64,051
  S1/S0: 1.3
  light intensity, BTN-HRP1: 81,452
  S2/S0: 16.8
  light intensity, BTN-HRP10: 1,073,968
  S3/S0: 92.8
  light intensity, BTN-HRP100: 5,944,792
  S4/S0: 102.4
  effectiveness as SSIA in the model system: insuffient effectiveness
